Measured values published in patent US11629171B2, “Beta-hairpin peptidomimetics” (POLYPHOR AG, priority 2017, dated 2023).
In brackets after ≈: the same amount, converted by molar mass. Where a SMILES comes first, the peptide text is derived from it. Bridges are numbered along the chain shown (N, C = ends). Roman numbers before positions name the chains, in order. [ ]: non-standard residue; d: D form. The star is where a group is joined. Thr(ol) = C[C@@H](O)[C@H](N)CO; Tle = CC(C)(C)[C@H](N)C(=O)O; Hiv = CC(C)[C@H](O)C(=O)O; Isovaleryl = CC(C)CC(=O)*; dDab = NCC[C@@H](N)C(=O)O; hSer = N[C@@H](CCO)C(=O)O; Nle = CCCC[C@H](N)C(=O)O; Orn = NCCC[C@H](N)C(=O)O; Dab = NCC[C@H](N)C(=O)O; Nva = CCC[C@H](N)C(=O)O; Dap = NC[C@H](N)C(=O)O; Propionyl = CCC(=O)*

Legend:
Assay type in all cases: cell-based
[1] = test system: Acinetobacter baumannii DSM 30008; details: DSM 30008
Summary of the method: (§1)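 Standard CLSI microdilution testing: bacterial suspensions standardized against 0.5 McFarland to about 10^6 CFU/mL in MH-II broth meet serially halved peptide concentrations in broth containing 0.002% polysorbate 80; incubation lasts 18-20 h at 35° C before the MIC is scored.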

[2] = test system: Acinetobacter baumannii 872842; details: 872842
Summary of the method: as §1

[3] = test system: Klebsiella pneumoniae SSI #3010; details: SSI #3010
Summary of the method: as §1

[4] = test system: Enterobacter cloacae 848840; details: 848840
Summary of the method: as §1

[5] = test system: Escherichia coli ATCC 25922; details: ATCC 25922
Summary of the method: as §1

Escherichia coli 926415 = details: 926415
Summary of the method: as §1

[6] = test system: Pseudomonas aeruginosa ATCC 27853; details: ATCC 27853
Summary of the method: as §1

[7] = test system: Klebsiella pneumoniae 968733; details: 968733
Summary of the method: as §1

[8] = test system: human red blood cells (hRBC); experiment: Hemolysis; details: red cells of human, 1 h, 200
Summary of the method: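 Read-out is supernatant absorbance at 540 nm, normalised to full lysis by 2% Triton X-100 and zero lysis by PBS with 10% water. Peptides (200 μg/mL) were exposed to 20% v/v washed human erythrocytes at 37° C for 1 h under shaking.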

Row | SMILES | Acinetobacter baumannii DSM 30008 MIC [1] [µg/mL] | MIC [2] [µg/mL] | Klebsiella pneumoniae SSI #3010 MIC [3] [µg/mL] | MIC [4] [µg/mL] | Escherichia coli ATCC 25922 MIC [5] [µg/mL] | MIC (Escherichia coli 926415) [µg/mL] | Pseudomonas aeruginosa ATCC 27853 MIC [6] [µg/mL] | MIC [7] [µg/mL] | Hemolysis at 200 μg/mL [8] [%] | MIC [1] [µg/mL] | MIC [3] [µg/mL] | MIC [5] [µg/mL] | MIC [6] [µg/mL]
1 | CCCC[C@@H]1NC(=O)[C@H](CO)NC(=O)[C@H](Cc2c[nH]c3ccccc23)NC(=O)[C@H](CO)NC(=O)[C@@H](CCN)NC(=O)[C@H](CCC(=O)N[C@@H](CCN)C(=O)N[C@H](C(=O)N[C@@H](CN)C(=O)N[C@H]2CCNC(=O)[C@H]([C@@H](C)O)NC(=O)[C@H](CCN)NC(=O)[C@H](CCN)NC(=O)[C@H](CC(C)C)NC(=O)[C@@H](CC(C)C)NC(=O)[C@H](CCN)NC2=O)[C@@H](C)O)NC(=O)[C@H](CCN)NC(=O)[C@H](Cc2ccc(O)cc2)NC(=O)[C@@H](NC(=O)[C@@H](NC(C)=O)C(C)C)CCNC(=O)C[C@@H](C(=O)N[C@@H](CO)C(N)=O)NC1=O [Ex. 325] (I: Ac-V[Dab]Y[Dab]E[dDab]SWS[Nle]DS-NH2 / II: [Dab]T[Dap][Dab][Dab][dL]L[Dab][Dab]T; lactam I:2-I:11, II:4-II:C; amide I:5-II:N) | 0.0625 | 0.125 (≈ 0.052 µM) | 0.0625 | 0.0625 (≈ 0.026 µM) | 0.0625 | 0.125 (≈ 0.052 µM) | 0.125 | 0.5 (≈ 0.208 µM) | <1 | – | – | – | –
2 | CCCC[C@@H]1NC(=O)[C@H](CO)NC(=O)[C@H](Cc2c[nH]c3ccccc23)NC(=O)[C@H](CO)NC(=O)[C@@H](CCN)NC(=O)[C@H](CCC(=O)N[C@@H](CCN)C(=O)N[C@H](C(=O)N[C@@H](CN)C(=O)N[C@H]2CCNC(=O)[C@H]([C@@H](C)O)NC(=O)[C@H](CCN)NC(=O)[C@H](CCN)NC(=O)[C@H](CC(C)C)NC(=O)[C@@H](CC(C)C)NC(=O)[C@H](CCN)NC2=O)[C@@H](C)O)NC(=O)[C@H](CCN)NC(=O)[C@H](Cc2ccc(O)cc2)NC(=O)[C@@H](NC(=O)[C@@H](NC(C)=O)C(C)C)CSSC[C@@H](C(=O)N[C@@H](CO)C(N)=O)NC1=O [Ex. 316] (I: Ac-VCY[Dab]E[dDab]SWS[Nle]CS-NH2 / II: [Dab]T[Dap][Dab][Dab][dL]L[Dab][Dab]T; disulfide I:2-I:11; amide I:5-II:N; lactam II:4-II:C) | 0.01562 | 0.03125 (≈ 0.013 µM) | 0.0625 | 0.0625 (≈ 0.0259 µM) | 0.01562 | 0.0625 (≈ 0.0259 µM) | 0.0625 | 0.0625 (≈ 0.0259 µM) | <1 | – | – | – | –
3 | CC(=O)N[C@H](C(=O)N[C@H]1CSSC[C@@H](C(=O)N[C@@H](CO)C(N)=O)NC(=O)[C@H](C(C)C)NC(=O)[C@H](CO)NC(=O)[C@H](Cc2c[nH]c3ccccc23)NC(=O)[C@H](CCC(=O)N[C@@H](CCN)C(=O)N[C@H](C(=O)N[C@@H](CN)C(=O)N[C@H]2CCNC(=O)[C@H]([C@@H](C)O)NC(=O)[C@H](CCN)NC(=O)[C@H](CCN)NC(=O)[C@H](CC(C)C)NC(=O)[C@@H](CC(C)C)NC(=O)[C@H](CCN)NC2=O)[C@@H](C)O)NC(=O)[C@@H](CCN)NC(=O)[C@H](CCCN)NC(=O)[C@H]([C@@H](C)O)NC(=O)[C@H](Cc2ccc(O)cc2)NC1=O)C(C)C [Ex. 355] (I: Ac-VCYT[Orn][dDab]EWSVCS-NH2 / II: [Dab]T[Dap][Dab][Dab][dL]L[Dab][Dab]T; disulfide I:2-I:11; amide I:7-II:N; lactam II:4-II:C) | 0.03125 | 0.0625 (≈ 0.0258 µM) | 0.0625 | 0.125 (≈ 0.0515 µM) | 0.03125 | 0.25 (≈ 0.103 µM) | 0.125 | 0.25 (≈ 0.103 µM) | 6 | – | – | – | –
4 | CC(C)CC(=O)N[C@H]1CSSC[C@@H](C(=O)N[C@H](CO)[C@@H](C)O)NC(=O)[C@H](C(C)(C)C)NC(=O)[C@H](CO)NC(=O)[C@H](Cc2c[nH]c3ccccc23)NC(=O)[C@H]([C@@H](C)O)NC(=O)[C@@H](CCN)NC(=O)[C@H](CCC(=O)N[C@@H](CCN)C(=O)N[C@H](C(=O)N[C@@H](CCN)C(=O)N[C@H]2CCNC(=O)[C@H]([C@@H](C)O)NC(=O)[C@H](CCN)NC(=O)[C@H](CCN)NC(=O)[C@H](CC(C)C)NC(=O)[C@@H](CC(C)C)NC(=O)[C@H](CCN)NC2=O)[C@@H](C)O)NC(=O)[C@H](CN)NC(=O)[C@H](Cc2ccc(O)cc2)NC1=O [Example 4] (I: Isovaleryl-CY[Dap]E[dDab]TWS[Tle]C[Thr(ol)] / II: [Dab]T[Dab][Dab][Dab][dL]L[Dab][Dab]T; disulfide I:1-I:10; amide I:4-II:N; lactam II:4-II:C) | – | 0.125 (≈ 0.0527 µM) | – | 0.25 (≈ 0.105 µM) | – | 0.25 (≈ 0.105 µM) | – | 0.5 (≈ 0.211 µM) | 1 | 0.0625 (≈ 0.0264 µM) | 0.125 (≈ 0.0527 µM) | 0.125 (≈ 0.0527 µM) | 0.125 (≈ 0.0527 µM)
5 | CCC[C@@H]1NC(=O)[C@@H](CC(C)C)NC(=O)[C@H](CCN)NC(=O)[C@@H](NC(=O)[C@H](CN)NC(=O)[C@@H](NC(=O)[C@H](CCN)NC(=O)CC[C@@H]2NC(=O)[C@H](CCN)NC(=O)[C@H](Cc3ccc(O)cc3)NC(=O)[C@@H](NC(=O)[C@@H](NC(C)=O)C(C)C)CSSC[C@@H](C(=O)N[C@H](C(N)=O)[C@@H](C)O)NC(=O)[C@H](C(C)(C)C)NC(=O)[C@H](CO)NC(=O)[C@H](Cc3c[nH]c4ccccc34)NC(=O)[C@H](CO)NC(=O)[C@@H](CCN)NC2=O)[C@@H](C)O)CCNC(=O)[C@H]([C@@H](C)O)NC(=O)[C@H](CCN)NC(=O)[C@H](CCN)NC1=O [Ex. 141] (I: Ac-VCY[Dab]E[dDab]SWS[Tle]CT-NH2 / II: [Dab]T[Dap][Dab][Dab][dL][Nva][Dab][Dab]T; disulfide I:2-I:11; amide I:5-II:N; lactam II:4-II:C) | – | 0.0625 (≈ 0.0259 µM) | – | 0.0625 (≈ 0.0259 µM) | – | 0.03125 (≈ 0.013 µM) | – | 0.03125 (≈ 0.013 µM) | 2 | 0.03125 (≈ 0.013 µM) | 0.03125 (≈ 0.013 µM) | 0.03125 (≈ 0.013 µM) | 0.125 (≈ 0.0518 µM)
6 | CC(C)C[C@@H]1NC(=O)[C@@H](CC(C)C)NC(=O)[C@H](CCN)NC(=O)[C@@H](NC(=O)[C@H](CCN)NC(=O)[C@@H](NC(=O)[C@H](CCN)NC(=O)CC[C@@H]2NC(=O)[C@H](CCN)NC(=O)[C@H](Cc3ccc(O)cc3)NC(=O)[C@@H](NC(=O)[C@@H](O)C(C)C)CSSC[C@@H](C(N)=O)NC(=O)[C@H](C(C)(C)C)NC(=O)[C@H](CO)NC(=O)[C@H](Cc3c[nH]c4ccccc34)NC(=O)[C@H](CCO)NC(=O)[C@@H](CCN)NC2=O)[C@@H](C)O)CCNC(=O)[C@H]([C@@H](C)O)NC(=O)[C@H](CCN)NC(=O)[C@H](CCN)NC1=O [Example 7] (I: H-[Hiv]CY[Dab]E[dDab][hSer]WS[Tle]C-NH2 / II: [Dab]T[Dab][Dab][Dab][dL]L[Dab][Dab]T; disulfide I:2-I:11; amide I:5-II:N; lactam II:4-II:C) | – | 1 (≈ 0.432 µM) | – | 2 (≈ 0.865 µM) | – | 0.5 (≈ 0.216 µM) | – | 0.25 (≈ 0.108 µM) | <1 | 0.0625 (≈ 0.027 µM) | 0.125 (≈ 0.054 µM) | 0.125 (≈ 0.054 µM) | 0.125 (≈ 0.054 µM)
7 | CCC(=O)N[C@H](C(=O)N[C@H]1CSSC[C@@H](C(=O)N[C@@H](CO)C(N)=O)NC(=O)[C@H](C(C)(C)C)NC(=O)[C@H](CO)NC(=O)[C@H](Cc2c[nH]c3ccccc23)NC(=O)[C@H](CO)NC(=O)[C@@H](CCN)NC(=O)[C@H](CCC(=O)N[C@@H](CCN)C(=O)N[C@H](C(=O)N[C@@H](CN)C(=O)N[C@H]2CCNC(=O)[C@H]([C@@H](C)O)NC(=O)[C@H](CCN)NC(=O)[C@H](CCN)NC(=O)[C@H](CC(C)C)NC(=O)[C@@H](CC(C)C)NC(=O)[C@H](CCN)NC2=O)[C@@H](C)O)NC(=O)[C@H](CCN)NC(=O)[C@H](Cc2ccc(O)cc2)NC1=O)C(C)C [Ex. 144] (I: Propionyl-VCY[Dab]E[dDab]SWS[Tle]CS-NH2 / II: [Dab]T[Dap][Dab][Dab][dL]L[Dab][Dab]T; disulfide I:2-I:11; amide I:5-II:N; lactam II:4-II:C) | – | 0.0625 (≈ 0.0258 µM) | – | 0.125 (≈ 0.0515 µM) | – | 0.0625 (≈ 0.0258 µM) | – | 0.0625 (≈ 0.0258 µM) | <1 | 0.0625 (≈ 0.0258 µM) | 0.0625 (≈ 0.0258 µM) | 0.03125 (≈ 0.0129 µM) | 0.125 (≈ 0.0515 µM)
